Source: patent US10017477B2, “Janus kinase inhibitors and uses thereof” (Dana-Farber Cancer Institute, Inc., priority 2014, dated 2018)
Values joined by “and” are separate entries in the source; they are usually repeats but may differ in a detail not shown here. Equal entries are not always repeated. Where two headings read alike, the source gives them in different places.

Key:
Ba/F3 JAK3 = target: T1, Ba/F3 JAK3 (Homo sapiens, UniProt P52333); experiment: CellTiter-Glo cell proliferation, Ba/F3 JAK3; format: cell-based, murine; settings: 72 hours, read-out: Ba/F3 IC50 JAK3
T1 construct: candidate: TEL (ETV6) N-terminal oligomerisation domain
T1 sequence (P52333 1-1124): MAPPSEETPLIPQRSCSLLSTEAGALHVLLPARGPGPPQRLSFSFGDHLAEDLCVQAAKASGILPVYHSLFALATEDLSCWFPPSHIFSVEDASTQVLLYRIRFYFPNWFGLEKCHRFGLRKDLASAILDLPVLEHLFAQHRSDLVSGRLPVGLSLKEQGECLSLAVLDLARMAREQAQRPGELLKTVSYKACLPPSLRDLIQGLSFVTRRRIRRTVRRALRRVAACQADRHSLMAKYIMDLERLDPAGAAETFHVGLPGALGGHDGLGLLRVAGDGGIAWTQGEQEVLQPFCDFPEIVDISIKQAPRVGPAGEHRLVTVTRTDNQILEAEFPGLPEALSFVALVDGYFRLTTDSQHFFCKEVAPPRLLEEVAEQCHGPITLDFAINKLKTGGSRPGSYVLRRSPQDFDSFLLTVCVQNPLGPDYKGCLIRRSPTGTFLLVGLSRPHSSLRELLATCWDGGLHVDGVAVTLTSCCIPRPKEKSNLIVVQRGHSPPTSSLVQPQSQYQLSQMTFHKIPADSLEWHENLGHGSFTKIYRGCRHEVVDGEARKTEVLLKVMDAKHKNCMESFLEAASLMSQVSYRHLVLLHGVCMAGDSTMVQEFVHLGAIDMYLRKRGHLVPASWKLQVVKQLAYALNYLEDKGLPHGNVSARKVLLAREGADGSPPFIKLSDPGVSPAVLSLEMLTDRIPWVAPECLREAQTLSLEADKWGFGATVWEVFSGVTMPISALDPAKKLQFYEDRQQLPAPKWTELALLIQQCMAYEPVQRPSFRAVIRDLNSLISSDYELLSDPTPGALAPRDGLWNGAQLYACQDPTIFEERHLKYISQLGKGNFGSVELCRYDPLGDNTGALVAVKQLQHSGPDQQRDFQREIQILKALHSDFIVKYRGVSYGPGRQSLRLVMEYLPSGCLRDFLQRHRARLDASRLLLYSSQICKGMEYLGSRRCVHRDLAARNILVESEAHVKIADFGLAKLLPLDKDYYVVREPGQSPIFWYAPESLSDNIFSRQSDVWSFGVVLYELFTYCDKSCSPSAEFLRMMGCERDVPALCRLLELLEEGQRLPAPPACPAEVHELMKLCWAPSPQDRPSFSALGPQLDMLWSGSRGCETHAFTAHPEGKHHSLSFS

[1] = tested on: NKL (a Natural Killer Cell Lymphoma (NKCL) cell line); experiment: CellTiter-Glo cell proliferation, NKL cancer cell line; format: cell-based
Method: (§1) CellTiter-Glo® Luminescent cell viability assay (Promega) was used to assess cell survival following treatment with the compounds described herein. Cells were seeded into 384 well plates with the EL406 Combination Washer Dispenser (BioTek Instruments, Inc.), and the compounds were injected into the cells culture media with the JANUS Automated Workstation (PerkinElmer Inc.). Cells were treated with a series diluted inhibitors (20 to 0.04 μM) for 72 hours at 37° C. Luminescent measurement is performed using the 2104 Envision® Multilabel Reader (PerkinElmer Inc.). The cell lines employed include Ba/F3 (a murine interleukin-3 dependent pro-B cell line), NKL (a Natural Killer Cell Lymphoma (NKCL) cell line), CMK (an Acute Megakaryoblastic Leukemia (AMKL) cell line).

[2] = tested on: CMK (an Acute Megakaryoblastic Leukemia (AMKL) cell line); experiment: CellTiter-Glo cell proliferation, CMK cancer cell line; format: cell-based
Method: as §1

Aqueous solubility = format: physicochemical; settings: aqueous medium; at 25° C.
[3] = Pharmacokinetics in mouse; format: in vivo; settings: blood
[4] = tested on: IL-4 signaling (JAK3 dependent); experiment: Profiling on primary immune cells, IL-4 signaling; format: cell-based
[5] = tested on: EGFR (T790M) dependent Ba/F3; experiment: Proliferation of EGFR (T790M) dependent Ba/F3; format: cell-based, murine; settings: Mus musculus, BaF3; at 200 nM
Method: as §1

JAK3 = target: T2, JAK3 (Homo sapiens, UniProt P52333); experiment: INVITROGEN Select Screening assay, enzymatic IC50, JAK3; format: biochemical
T2 construct: purchased INVITROGEN (Select Screening assay service)
T2 sequence (P52333 1-1124): T1 sequence (P52333 1-1124)

AURKA = target: T3, AURKA (Homo sapiens, UniProt O14965); experiment: INVITROGEN Select Screening assay, enzymatic IC50, AURKA; format: biochemical
T3 construct: purchased INVITROGEN (Select Screening assay service)
T3 sequence (O14965 1-403): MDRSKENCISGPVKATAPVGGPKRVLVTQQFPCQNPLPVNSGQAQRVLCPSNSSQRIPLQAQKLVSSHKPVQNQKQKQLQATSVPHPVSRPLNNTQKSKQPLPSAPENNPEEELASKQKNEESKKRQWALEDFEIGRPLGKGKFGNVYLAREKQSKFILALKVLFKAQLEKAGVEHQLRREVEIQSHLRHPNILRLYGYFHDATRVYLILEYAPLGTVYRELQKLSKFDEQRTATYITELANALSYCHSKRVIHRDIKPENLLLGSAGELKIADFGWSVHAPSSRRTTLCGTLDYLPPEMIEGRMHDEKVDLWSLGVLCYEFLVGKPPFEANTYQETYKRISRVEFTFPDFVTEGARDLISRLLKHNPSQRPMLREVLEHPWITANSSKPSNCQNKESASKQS
Text: (§2) The in vitro activity of the compounds described herein in inhibiting JAK3 and other kinases were obtained using an INVITROGEN Select Screening assay as known in the art.

AURKB = target: T4, AURKB (Homo sapiens, UniProt Q96GD4); experiment: INVITROGEN Select Screening assay, enzymatic IC50, AURKB; format: biochemical
T4 construct: purchased INVITROGEN (Select Screening assay service)
T4 sequence (Q96GD4 whole entry): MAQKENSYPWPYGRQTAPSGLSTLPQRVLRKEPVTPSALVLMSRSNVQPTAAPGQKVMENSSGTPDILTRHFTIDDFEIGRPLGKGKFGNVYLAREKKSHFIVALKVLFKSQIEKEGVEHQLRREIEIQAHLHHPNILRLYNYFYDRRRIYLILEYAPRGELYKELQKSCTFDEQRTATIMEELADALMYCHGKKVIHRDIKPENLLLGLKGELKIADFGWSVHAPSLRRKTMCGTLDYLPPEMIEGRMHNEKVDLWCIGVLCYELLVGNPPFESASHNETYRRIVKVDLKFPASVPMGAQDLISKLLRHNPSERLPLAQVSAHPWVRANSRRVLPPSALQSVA
Text: as §2

Ba/F3 JAK1 = target: T5, Ba/F3 JAK1 (Homo sapiens, UniProt P23458); experiment: CellTiter-Glo cell proliferation, Ba/F3 JAK1; format: cell-based, murine; settings: 72 hours; read-out: Ba/F3 IC50 JAK1
T5 construct: candidate: TEL (ETV6) N-terminal oligomerisation domain
T5 sequence (P23458 whole entry, change not shown, the tested form may be a part): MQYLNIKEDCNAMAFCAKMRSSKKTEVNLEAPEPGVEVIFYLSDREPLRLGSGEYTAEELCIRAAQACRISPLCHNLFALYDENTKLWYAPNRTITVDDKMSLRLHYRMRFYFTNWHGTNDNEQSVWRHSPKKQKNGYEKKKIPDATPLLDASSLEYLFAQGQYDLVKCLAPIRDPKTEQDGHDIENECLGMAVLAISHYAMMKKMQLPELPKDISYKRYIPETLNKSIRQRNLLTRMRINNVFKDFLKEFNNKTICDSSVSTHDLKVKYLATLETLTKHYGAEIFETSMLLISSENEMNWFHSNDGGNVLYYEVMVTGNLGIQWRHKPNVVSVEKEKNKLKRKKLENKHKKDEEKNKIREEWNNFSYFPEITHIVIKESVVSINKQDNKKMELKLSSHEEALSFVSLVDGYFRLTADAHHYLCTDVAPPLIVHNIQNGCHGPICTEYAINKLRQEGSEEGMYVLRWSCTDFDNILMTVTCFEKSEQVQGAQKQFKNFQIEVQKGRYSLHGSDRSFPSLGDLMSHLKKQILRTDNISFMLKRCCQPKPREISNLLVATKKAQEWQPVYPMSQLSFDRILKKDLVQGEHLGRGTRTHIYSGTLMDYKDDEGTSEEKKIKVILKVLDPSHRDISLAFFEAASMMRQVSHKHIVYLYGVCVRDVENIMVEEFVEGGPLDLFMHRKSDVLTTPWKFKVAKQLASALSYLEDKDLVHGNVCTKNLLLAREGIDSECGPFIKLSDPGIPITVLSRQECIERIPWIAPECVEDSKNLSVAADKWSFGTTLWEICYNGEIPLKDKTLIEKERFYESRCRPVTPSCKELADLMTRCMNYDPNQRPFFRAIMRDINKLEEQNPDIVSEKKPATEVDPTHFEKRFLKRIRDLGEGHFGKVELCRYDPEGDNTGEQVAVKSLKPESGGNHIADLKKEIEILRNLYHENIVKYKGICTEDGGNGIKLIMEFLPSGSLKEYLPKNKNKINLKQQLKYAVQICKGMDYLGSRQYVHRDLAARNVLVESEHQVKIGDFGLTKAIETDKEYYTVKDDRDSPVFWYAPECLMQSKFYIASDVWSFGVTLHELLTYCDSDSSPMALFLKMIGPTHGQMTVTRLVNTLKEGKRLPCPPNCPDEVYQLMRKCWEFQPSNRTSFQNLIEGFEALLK

Ba/F3 JAK2 = target: T6, Ba/F3 JAK2 (Homo sapiens, UniProt O60674); experiment: CellTiter-Glo cell proliferation, Ba/F3 JAK2; format: cell-based, murine; settings: 72 hours; read-out: Ba/F3 IC50 JAK2
T6 construct: candidate: TEL (ETV6) N-terminal oligomerisation domain
T6 sequence (O60674 whole entry, change not shown, the tested form may be a part): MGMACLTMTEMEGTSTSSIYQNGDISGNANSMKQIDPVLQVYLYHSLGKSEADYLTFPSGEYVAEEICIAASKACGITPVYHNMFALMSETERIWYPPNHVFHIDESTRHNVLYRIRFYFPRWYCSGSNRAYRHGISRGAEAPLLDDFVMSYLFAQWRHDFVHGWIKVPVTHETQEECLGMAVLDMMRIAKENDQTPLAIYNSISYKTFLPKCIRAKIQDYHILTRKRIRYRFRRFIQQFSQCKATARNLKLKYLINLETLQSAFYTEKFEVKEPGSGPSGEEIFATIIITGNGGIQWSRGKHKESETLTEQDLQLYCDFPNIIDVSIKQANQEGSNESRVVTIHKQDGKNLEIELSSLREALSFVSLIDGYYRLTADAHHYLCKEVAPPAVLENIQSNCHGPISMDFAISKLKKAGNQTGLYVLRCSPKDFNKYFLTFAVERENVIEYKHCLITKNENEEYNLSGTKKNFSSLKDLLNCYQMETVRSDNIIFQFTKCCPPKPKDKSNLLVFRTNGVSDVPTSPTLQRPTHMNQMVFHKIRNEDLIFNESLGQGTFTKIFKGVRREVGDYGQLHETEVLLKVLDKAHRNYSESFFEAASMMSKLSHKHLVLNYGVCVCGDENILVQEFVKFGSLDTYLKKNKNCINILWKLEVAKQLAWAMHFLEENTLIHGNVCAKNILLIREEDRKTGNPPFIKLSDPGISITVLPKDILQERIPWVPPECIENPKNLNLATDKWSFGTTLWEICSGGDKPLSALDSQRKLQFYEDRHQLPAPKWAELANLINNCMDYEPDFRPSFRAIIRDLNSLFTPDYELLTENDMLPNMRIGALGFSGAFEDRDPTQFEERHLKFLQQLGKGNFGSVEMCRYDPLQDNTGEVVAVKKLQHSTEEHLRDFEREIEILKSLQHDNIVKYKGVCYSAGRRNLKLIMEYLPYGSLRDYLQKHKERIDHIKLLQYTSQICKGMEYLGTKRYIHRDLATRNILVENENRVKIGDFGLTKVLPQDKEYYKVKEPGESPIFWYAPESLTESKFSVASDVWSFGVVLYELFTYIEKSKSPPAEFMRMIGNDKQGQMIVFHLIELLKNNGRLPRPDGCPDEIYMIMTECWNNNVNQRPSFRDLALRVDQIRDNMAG

Ba/F3 TYK2 = target: T7, Ba/F3 TYK2 (Homo sapiens, UniProt P29597); experiment: CellTiter-Glo cell proliferation, Ba/F3 TYK2; format: cell-based, murine; settings: 72 hours; read-out: Ba/F3 IC50 TYK2
T7 construct: The likeliest candidate is TEL (ETV6) N-terminal oligomerisation domain fused to the TYK2 kinase domain; BCR, another partner, or no partner are also possible
T7 sequence (P29597 whole entry, change not shown, the tested form may be a part): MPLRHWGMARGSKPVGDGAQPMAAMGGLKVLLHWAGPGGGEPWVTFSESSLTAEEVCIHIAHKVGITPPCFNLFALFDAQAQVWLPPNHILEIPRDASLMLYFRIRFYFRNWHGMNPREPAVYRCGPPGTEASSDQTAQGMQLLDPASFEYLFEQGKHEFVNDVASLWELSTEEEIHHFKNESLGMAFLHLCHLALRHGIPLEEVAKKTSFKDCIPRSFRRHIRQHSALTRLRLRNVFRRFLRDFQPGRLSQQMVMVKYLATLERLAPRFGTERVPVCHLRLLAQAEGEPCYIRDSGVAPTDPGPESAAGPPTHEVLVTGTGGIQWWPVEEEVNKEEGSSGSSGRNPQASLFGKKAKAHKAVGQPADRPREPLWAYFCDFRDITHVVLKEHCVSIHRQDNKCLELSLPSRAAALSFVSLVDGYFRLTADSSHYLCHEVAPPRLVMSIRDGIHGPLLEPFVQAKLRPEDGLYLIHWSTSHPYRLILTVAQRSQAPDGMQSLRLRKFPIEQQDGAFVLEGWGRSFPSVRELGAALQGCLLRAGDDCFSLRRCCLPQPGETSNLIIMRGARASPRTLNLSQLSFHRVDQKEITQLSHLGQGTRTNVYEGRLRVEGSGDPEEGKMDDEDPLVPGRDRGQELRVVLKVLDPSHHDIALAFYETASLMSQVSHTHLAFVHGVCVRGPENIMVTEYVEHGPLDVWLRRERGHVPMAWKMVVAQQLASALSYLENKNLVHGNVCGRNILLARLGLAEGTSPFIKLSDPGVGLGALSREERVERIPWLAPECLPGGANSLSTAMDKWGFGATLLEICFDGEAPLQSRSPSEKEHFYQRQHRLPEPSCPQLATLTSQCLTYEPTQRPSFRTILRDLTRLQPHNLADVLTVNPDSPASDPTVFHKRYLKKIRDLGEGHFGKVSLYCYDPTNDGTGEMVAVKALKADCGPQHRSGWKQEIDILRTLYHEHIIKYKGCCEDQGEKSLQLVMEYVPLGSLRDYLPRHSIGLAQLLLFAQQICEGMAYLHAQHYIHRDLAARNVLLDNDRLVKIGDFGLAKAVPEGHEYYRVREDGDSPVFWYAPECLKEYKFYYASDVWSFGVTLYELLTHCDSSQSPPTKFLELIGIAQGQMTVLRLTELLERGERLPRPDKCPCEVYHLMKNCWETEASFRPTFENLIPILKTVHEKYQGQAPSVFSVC

Ba/F3 ABL = target: T8, Ba/F3 ABL (Homo sapiens, UniProt P00519); experiment: CellTiter-Glo cell proliferation, Ba/F3 ABL; format: cell-based, murine; settings: 72 hours; read-out: Ba/F3 IC50 ABL
T8 construct: candidates: BCR or TEL (ETV6)
T8 sequence (P00519 whole entry, change not shown): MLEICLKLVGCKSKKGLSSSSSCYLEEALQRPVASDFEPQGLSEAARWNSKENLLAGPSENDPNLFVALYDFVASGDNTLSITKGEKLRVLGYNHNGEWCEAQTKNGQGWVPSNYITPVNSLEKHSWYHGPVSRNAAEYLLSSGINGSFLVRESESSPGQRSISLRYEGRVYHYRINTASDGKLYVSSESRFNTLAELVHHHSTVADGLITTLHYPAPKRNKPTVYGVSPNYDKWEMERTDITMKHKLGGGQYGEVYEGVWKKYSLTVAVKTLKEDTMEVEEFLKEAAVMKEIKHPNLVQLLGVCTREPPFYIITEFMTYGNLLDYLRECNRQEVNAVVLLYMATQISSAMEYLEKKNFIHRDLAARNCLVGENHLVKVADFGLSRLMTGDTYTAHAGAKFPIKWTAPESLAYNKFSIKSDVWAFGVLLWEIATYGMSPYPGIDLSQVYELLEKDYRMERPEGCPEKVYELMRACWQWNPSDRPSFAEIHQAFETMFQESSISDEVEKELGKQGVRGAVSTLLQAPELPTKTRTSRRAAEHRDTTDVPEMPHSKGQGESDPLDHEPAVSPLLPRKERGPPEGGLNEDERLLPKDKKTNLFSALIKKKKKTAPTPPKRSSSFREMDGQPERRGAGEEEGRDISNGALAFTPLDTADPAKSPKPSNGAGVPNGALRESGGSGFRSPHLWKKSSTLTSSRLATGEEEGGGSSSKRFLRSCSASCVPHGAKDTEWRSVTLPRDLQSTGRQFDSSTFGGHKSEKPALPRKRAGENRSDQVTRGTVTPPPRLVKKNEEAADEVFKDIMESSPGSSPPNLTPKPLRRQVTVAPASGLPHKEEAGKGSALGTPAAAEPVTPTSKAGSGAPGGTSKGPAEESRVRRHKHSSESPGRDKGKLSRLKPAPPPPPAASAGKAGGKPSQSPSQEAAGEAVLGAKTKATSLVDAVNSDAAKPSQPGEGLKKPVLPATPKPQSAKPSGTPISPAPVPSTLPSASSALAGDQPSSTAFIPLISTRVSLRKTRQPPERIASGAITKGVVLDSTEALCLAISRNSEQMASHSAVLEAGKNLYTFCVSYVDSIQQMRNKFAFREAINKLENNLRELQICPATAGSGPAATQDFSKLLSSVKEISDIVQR
Method: as §1

SMILES | GI50 (Ba/F3 JAK3) | IC50 (JAK3) [µM] | GI50 (Ba/F3 JAK1) [µM] | GI50 (Ba/F3 JAK2) [µM] | GI50 (Ba/F3 TYK2) [µM] | GI50 (Ba/F3 ABL) [µM] | also measured
C=CC(=O)Nc1cccc(CNc2nc(Nc3ccc(N4CCN(C)CC4)cc3OC)ncc2Cl)c1 [Compound 2, N-(3-(((5-chloro-2-((2-methoxy-4-(4-methylpiperazin-1-yl)phenyl)amino)pyrimidin-4-yl)amino)methyl)phenyl)acrylamide] | 0.0604 µM and 0.0626 µM |  |  |  |  |  | GI50 (Ba/F3 JAK3; listed as compound 2): 0.06 µM; IC50 ([1]; 72 hours, read-out: Cancer cell lines IC50 NKL): 0.0197 µM; EC50 ([1]; IL-2 dependent NKL cell line, read-out: anti-proliferative potency EC50, NKL): 0.02 µM; IC50 ([2]; 72 hours, read-out: Cancer cell lines IC50 CMK): 8.28 µM; anti-proliferative potency on AMKL cell line (in words) ([2]; cell line with activating mutation A572V of JAK3): doesn't shown anti-proliferative potency; solubility (Aqueous solubility): > 250 µM; Cmax ([3]; PO dose at 10 mg/kg): 294 ng/mL; Tmax ([3]; PO dose at 10 mg/kg): 2 h; bioavailability ([3]; PO dose at 10 mg/kg): 23%; Vd ([3]; intravenous dose at 1 mg/kg, read-out: Vdss): 1.2 L/kg; effect on IL-4 signaling [4]: blocks IL-4 signaling; inhibition at 0.2 µM [5]: > 90%
C=CC(=O)Nc1ccc(CNc2nc(Nc3ccc(N4CCN(C)CC4)cc3OC)ncc2Br)cc1 [Compound 3] |  | 0.0332 |  |  |  |  | 
C=CC(=O)Nc1ccc(CNc2nc(Nc3ccc(N4CCN(C)CC4)cc3OC)ncc2C(F)(F)F)cc1 [Compound 4] |  | 0.0572 |  |  |  |  | 
CCC(=O)Nc1ccc(CNc2nc(Nc3ccc(N4CCN(C)CC4)cc3OC)ncc2Cl)cc1 [Compound 5] |  | 5.42 |  |  |  |  | 
C=CC(=O)Nc1ccc(CNc2nc(Nc3ccc(N4CCOCC4)cc3)ncc2Cl)cc1 [Compound 13] |  |  |  |  |  |  | IC50 (AURKA): 0.173 µM; IC50 (AURKB): 0.835 µM
C=CC(=O)Nc1ccc(CNc2cc(Nc3ccc(N4CCN(C)CC4)cc3)ncn2)cc1 [Compound 32] |  |  |  |  |  | 22.4 | 
C=CC(=O)Nc1ccc(CN2C(=O)N(C)Cc3cnc(Nc4ccc(N5CCN(C)CC5)cc4)nc32)cc1 [Compound 35] | 0.88 µM | 0.0304 | 87.6 | 14.6 | 10.1 | 8.84 | 
C=CC(=O)Nc1cccc(CNc2cc(Nc3cnn(C)c3)ncn2)c1 [Compound 38] |  |  |  |  | 78 |  | 
C=CC(=O)Nc1cccc(CNc2nc(Nc3cc(Cl)c(C4CCOCC4)c(Cl)c3)ncc2Cl)c1 [Compound 45] |  | 0.1 |  |  |  |  | 
C=CC(=O)Nc1cccc(CN2CCc3cnc(Nc4cnn(C)c4)nc32)c1 [Compound 48] | > 50 µM | 8.04 | 56.4 | 18.1 | 8.85 | > 50 | 
C=CC(=O)Nc1cccc(CNc2nc(Nc3cc(OC)c(N4CCN(C)CC4)cc3OC)ncc2Cl)c1 [Compound 57] |  | 0.17 |  |  |  |  | 
C=CC(=O)Nc1cccc(CNc2nc(Nc3ccc(N4CCN(C)CC4)cc3OC)ncc2C2CC2)c1 [Compound 91] |  | 0.22 |  |  |  |  | 
C=CC(=O)Nc1cccc(CNc2nc(Nc3cnn(CCOCCOCCOCCNC(=O)CCCC[C@@H]4SC[C@@H]5NC(=O)N[C@@H]54)c3)ncc2Cl)c1 [Compound 93] |  |  | 18.7 | > 50 | 15.4 | > 50 | 

Further compounds by falling IC50 (JAK3), results first:

GI50 (Ba/F3 JAK3) | IC50 (JAK3) [µM] | GI50 (Ba/F3 JAK1) [µM] | GI50 (Ba/F3 JAK2) [µM] | GI50 (Ba/F3 TYK2) [µM] | GI50 (Ba/F3 ABL) [µM] | SMILES | also measured
0.4 µM | 0.0209 | 14 | > 50 | 50.1 | > 50 | C=CC(=O)Nc1cccc(CN2C(=O)N(C)Cc3cnc(Nc4cnn(C)c4)nc32)c1 [Compound 43] | 
0.1 µM | 0.0205 | > 50 | > 50 | > 50 | > 50 | C=CC(=O)Nc1cccc(CNc2nc(Nc3cc(F)c(C4CCOCC4)c(F)c3)ncc2Cl)c1 [Compound 50] | 
0.246 µM | 0.0153 | 2.88 | 2.3 | 1.53 | 4.55 | C=CC(=O)Nc1cccc(CNc2cc(Nc3ccc(N4CCN(C)CC4)cc3OC)ncn2)c1 [Compound 25] | 
0.0305 µM | 0.0035 | 1.29 | 1.87 | 0.607 | 2.52 | C=CC(=O)Nc1ccc(CNc2nc(Nc3ccc(N4CCOCC4)c(F)c3)ncc2Cl)cc1 [Compound 14] | IC50 (AURKA): 0.279 µM; IC50 (AURKB): 1.31 µM
0.0178 µM | 0.00279 | 0.379 | 0.538 | 0.284 | 0.453 | C=CC(=O)Nc1ccc(CNc2nc(Nc3ccc(N4CCN(C)CC4)c(F)c3)ncc2Cl)cc1 [Compound 16] | 
0.576 µM | 0.00121 | > 10 | 30.1 | 29.5 | 29.2 | C=CC(=O)Nc1ccc(CN2C(=O)NCc3cnc(Nc4ccc(N5CCN(C)CC5)cc4)nc32)cc1 [Compound 34] | 
0.0106 µM | 0.000689 | 0.172 | 0.2 | 0.144 | 0.158 | C=CC(=O)Nc1ccc(CNc2nc(Nc3ccc(N4CCN(C)CC4)cc3)ncc2Cl)cc1 [Compound 15] | 
